According to patent US20260226071A1, “2, 4-DIANILINOPYRIMIDINE-BASED AURORA-A KINASE SELECTIVE DEGRADATION INDUCING COMPOUNDS” (UPPTHERA, INC., priority 2023, published 2026):

Molecular target: T1, Aurora kinase A (AURKA) (Homo sapiens, UniProt O14965)
T1 construct: endogenous in cells; host or cells: HeLa LgBit (AURKA-HiBit KI), CRISPR/Cas9 knock-in at the endogenous AURKA locus
T1 sequence (O14965 1-403): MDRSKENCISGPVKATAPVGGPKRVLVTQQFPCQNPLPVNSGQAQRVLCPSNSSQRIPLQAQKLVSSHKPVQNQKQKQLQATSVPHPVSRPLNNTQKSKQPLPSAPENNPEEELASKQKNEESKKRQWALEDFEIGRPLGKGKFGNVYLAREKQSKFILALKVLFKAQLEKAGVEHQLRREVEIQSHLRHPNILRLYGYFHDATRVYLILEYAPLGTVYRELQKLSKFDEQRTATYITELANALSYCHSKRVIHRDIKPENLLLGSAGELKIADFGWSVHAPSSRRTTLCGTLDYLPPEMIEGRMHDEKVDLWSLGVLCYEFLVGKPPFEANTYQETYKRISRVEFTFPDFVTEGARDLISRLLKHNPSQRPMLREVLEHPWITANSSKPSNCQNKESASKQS
Experiment: Luciferase assay for AURKA in HeLa LgBit (AURKA-HiBit KI) cell line
Type: cell-based
Conditions: HeLa LgBit (AURKA-HiBit KI) cells, measured after 12 hours
Text: HeLa cell lines that stably express LgBit were constructed via LgBit vector transfection. Then, donor DNA and guide RNA for insertion of HiBit amino acid sequence at C-terminus of inherent Aurora kinase A (AURKA) genes were designed and constructed. Thereafter, they were transfected into the cell lines with CRISPR/Cas9 expression vector system. HiBit gene knock-in single cells were selected, passaged and used for the experiments.
For cell culture, DMEM (Gibco, Cat. No. 11995-065; Lot. No. 2562497), FBS (Gibco, Cat. No. 16000-044; Lot. No. 2511328P), Penicillin/Streptomycin (PS) (Gibco, Cat. No. 15140-122; Lot. No. 2585636), 90 mm^2 cell culture dish (SPL, Cat. No. 20100), 96-well white plate, PBS pH 7.4 (Gibco, […]), TrypLE™ Express (Gibco, Cat. No. 12605-010; Lot. No. 2522525), counting chamber (hematocytometer) (Hirschmann, Cat. No. 8100204; Lot. No. 8021087) and 0.4% Trypan Blue solution (DYNEBIO, Cat. No. CBT3710; Lot. No. 20231017) were used. Cells were cultured in DMEM supplemented with 10% FBS and 1% PS and incubated in CO2 incubator (Thermo, Cat. No. 4111) at 37° C., 5% CO2 condition.
HeLa LgBit (AURKA-HiBit KI) cell lines were cultured in 90 mm^2 cell culture dish, and 3×10^4 cells in […] of total medium volume were seeded and incubated for 18 hours in CO2 incubator. Then, Eudurazine (Promega, Cat. No. N247B; Lot. No. 495218) was added to each well to make up 1% of the total volume, followed by further incubation for 2 hours in CO2 incubator.
The present compounds were fully dissolved in DMSO (Sigma-Aldrich Cat. No. D2438, Lot. No. RNBL7287) and 10 nM or 100 nM of total concentration were used in the experiment. After adding the compounds in each well of 96-well white plate, the plate was placed in the plate reader (BMG Labtech, CLARIOstar Plus) for real-time analysis. The wavelength for analysis was set to […], and the luminescence value was measured after 12 hours. The luminescence value was analyzed through an Excel program.

luminescence value (Level) (10 nM compound)	luminescence value (Level) (100 nM compound)	SMILES
D (D is 0.7 to 0.8)	B (B is 0.2 to 0.4)	CN(CC1CCN(c2ccc(C3CCC(=O)NC3=O)cc2)CC1)C1CC(NC(=O)c2ccc(Nc3ncc(F)c(Nc4ccc(C(=O)Nc5ccccc5Cl)cc4)n3)cc2)C1 (centres unmarked) [Compound 11, N-(2-chlorophenyl)-4-((2-((4-((3-(((1-(4-(2,6-dioxopiperidin-3-yl)phenyl)piperidin-4-yl)methyl)(methyl)amino)cyclobutyl)carbamoyl)phenyl)amino)-5-fluoropyrimidin-4-yl)amino)benzamide]
D (D is 0.7 to 0.8)	B (B is 0.2 to 0.4)	O=C1CCC(c2ccc(N3CCC4(CC3)CC(C3CCN(NC(=O)c5ccc(Nc6ncc(F)c(Nc7ccc(C(=O)Nc8ccccc8Cl)cc7)n6)cc5)CC3)C4)cc2)C(=O)N1 (centres unmarked) [Compound 60, N-(2-chlorophenyl)-4-((2-((4-((4-(7-(4-(2,6-dioxopiperidin-3-yl)phenyl)-7-azaspiro[3.5]nonan-2-yl)piperidin-1-yl)carbamoyl)phenyl)amino)-5-fluoropyrimidin-4-yl)amino)benzamide]
C (C is 0.5 to 0.7)	A (A is <0.2)	Cc1cc(Nc2nc(Nc3ccc(C(=O)NN4CCC(CCN5CCN(c6ccc(C7CCC(=O)NC7=O)cc6)CC5)CC4)cc3)ncc2F)n[nH]1 (centres unmarked) [Compound 59, N-(4-(2-(4-(4-(2,6-dioxopiperidin-3-yl)phenyl)piperazin-1-yl)ethyl)piperidin-1-yl)-4-((5-fluoro-4-((5-methyl-1H-pyrazol-3-yl)amino)pyrimidin-2-yl)amino)benzamide]
B (B is 0.3 to 0.5)	B (B is 0.2 to 0.4)	O=C1CCN(c2ccc(N3CCN(CCC4CCN(NC(=O)c5ccc(Nc6ncc(F)c(Nc7ccc(C(=O)Nc8ccccc8Cl)cc7)n6)cc5)CC4)CC3)cc2)C(=O)N1 [Compound 54, N-(2-chlorophenyl)-4-[[2-[4-[[4-[2-[4-[4-(2,4-dioxohexahydropyrimidin-1-yl)phenyl]piperazin-1-yl]ethyl]-1-piperidyl]carbamoyl]anilino]-5-fluoro-pyrimidin-4-yl]amino]benzamide]

Continued, compound first:

SMILES	luminescence value (Level) (10 nM compound)	luminescence value (Level) (100 nM compound)
O=C1CCC(Nc2ccc(N3CCC(CN4CC5(C4)CN(C(=O)c4ccc(Nc6ncc(F)c(Nc7ccc(C(=O)Nc8ccccc8Cl)cc7)n6)cc4)C5)CC3)cc2)C(=O)N1 (centres unmarked) [Compound 31, N-(2-chlorophenyl)-4-((2-((4-(6-((1-(4-((2,6-dioxopiperidin-3-yl)amino)phenyl)piperidin-4-yl)methyl)-2,6-diazaspiro[3.3]heptane-2-carbonyl)phenyl)amino)-5-fluoropyrimidin-4-yl)amino)benzamide]	C (C is 0.5 to 0.7)	B (B is 0.2 to 0.4)
CN(CC1CCN(c2ccc(C3CCC(=O)NC3=O)cc2)CC1)[C@@H]1CCC[C@@H]1NC(=O)c1ccc(Nc2ncc(F)c(Nc3ccc(C(=O)Nc4ccccc4Cl)cc3)n2)cc1 (stereo partly drawn) [Compound 10, N-(2-chlorophenyl)-4-((2-((4-(((1S,2R)-2-(((1-(4-(2,6-dioxopiperidin-3-yl)phenyl)piperidin-4-yl)methyl)(methyl)amino)cyclopentyl)carbamoyl)phenyl)amino)-5-fluoropyrimidin-4-yl)amino)benzamide]	D (D is 0.7 to 0.8)	C (C is 0.4 to 0.6)
O=C1CCC(Nc2ccc(N3CC4CC(C3)N(CC3CCN(C(=O)c5ccc(Nc6ncc(F)c(Nc7ccc(C(=O)Nc8ccccc8Cl)cc7)n6)cc5)CC3)C4)cc2)C(=O)N1 (centres unmarked) [Compound 29, N-(2-chlorophenyl)-4-((2-((4-(4-((3-(4-((2,6-dioxopiperidin-3-yl)amino)phenyl)-3,6-diazabicyclo[3.2.1]octan-6-yl)methyl)piperidine-1-carbonyl)phenyl)amino)-5-fluoropyrimidin-4-yl)amino)benzamide]	C (C is 0.5 to 0.7)	B (B is 0.2 to 0.4)
O=C1CCC(Nc2ccc(N3C[C@@H]4[C@@H](CN5CCC(NC(=O)c6ccc(Nc7ncc(F)c(Nc8ccc(C(=O)Nc9ccccc9Cl)cc8)n7)cc6)CC5)[C@@H]4C3)cc2)C(=O)N1 (stereo partly drawn) [Compound 27, N-(2-chlorophenyl)-4-((2-((4-((1-(((1R,5S,6s)-3-(4-((2,6-dioxopiperidin-3-yl)amino)phenyl)-3-azabicyclo[3.1.0]hexan-6-yl)methyl)piperidin-4-yl)carbamoyl)phenyl)amino)-5-fluoropyrimidin-4-yl)amino)benzamide]	B (B is 0.3 to 0.5)	B (B is 0.2 to 0.4)
O=C1CCC(c2ccc(C#CC3CCN(C4CCN(C(=O)c5ccc(Nc6ncc(F)c(Nc7ccc(C(=O)Nc8ccccc8Cl)cc7)n6)cc5)CC4)CC3)cc2)C(=O)N1 (centres unmarked) [Compound 14, N-(2-chlorophenyl)-4-((2-((4-(4-((4-(2,6-dioxopiperidin-3-yl)phenyl)ethynyl)-[1,4′-bipiperidine]-1′-carbonyl)phenyl)amino)-5-fluoropyrimidin-4-yl)amino)benzamide]	D (D is 0.7 to 0.8)	C (C is 0.4 to 0.6)
O=C1CCC(NC(=O)c2cccc(N3CCC(CN4CCN(C(=O)Cc5ccc(Nc6ncc(F)c(Nc7ccc(C(=O)Nc8ccccc8Cl)cc7)n6)cc5)CC4)CC3)c2)C(=O)N1 (centres unmarked) [Compound 47, 3-(4-((4-(2-(4-((4-((4-((2-chlorophenyl)carbamoyl)phenyl)amino)-5-fluoropyrimidin-2-yl)amino)phenyl)acetyl)piperazin-1-yl)methyl)piperidin-1-yl)-N-(2,6-dioxopiperidin-3-yl)benzamide]	D (D is 0.7 to 0.8)	B (B is 0.2 to 0.4)
O=C1CCC(Nc2ccc(N3CCCN(C[C@H]4CC[C@H](NC(=O)c5ccc(Nc6ncc(F)c(Nc7ccc(C(=O)Nc8ccccc8Cl)cc7)n6)cc5)CC4)CC3)cc2)C(=O)N1 (some centres unmarked) [Compound 39, N-(2-chlorophenyl)-4-((2-((4-(((1r,4r)-4-((4-(4-((2,6-dioxopiperidin-3-yl)amino)phenyl)-1,4-diazepan-1-yl)methyl)cyclohexyl)carbamoyl)phenyl)amino)-5-fluoropyrimidin-4-yl)amino)benzamide]	B (B is 0.3 to 0.5)	A (A is <0.2)
O=C1CCC(Nc2ccc(N3CCC(CN4CCC5(CCN(C(=O)c6ccc(Nc7ncc(F)c(Nc8ccc(C(=O)Nc9ccccc9Cl)cc8)n7)cc6)C5)C4)CC3)cc2)C(=O)N1 (centres unmarked) [Compound 32, N-(2-chlorophenyl)-4-((2-((4-(7-((1-(4-((2,6-dioxopiperidin-3-yl)amino)phenyl)piperidin-4-yl)methyl)-2,7-diazaspiro[4.4]nonane-2-carbonyl)phenyl)amino)-5-fluoropyrimidin-4-yl)amino)benzamide]	B (B is 0.3 to 0.5)	B (B is 0.2 to 0.4)
O=C1CCC(Nc2ccc(N3CCN(C[C@@H]4[C@H]5CN(C(=O)c6ccc(Nc7ncc(F)c(Nc8ccc(C(=O)Nc9ccccc9Cl)cc8)n7)cc6)C[C@@H]45)CC3)cc2)C(=O)N1 (stereo partly drawn) [Compound 37, N-(2-chlorophenyl)-4-((2-((4-((1R,5S,6s)-6-((4-(4-((2,6-dioxopiperidin-3-yl)amino)phenyl)piperazin-1-yl)methyl)-3-azabicyclo[3.1.0]hexane-3-carbonyl)phenyl)amino)-5-fluoropyrimidin-4-yl)amino)benzamide]	B (B is 0.3 to 0.5)	B (B is 0.2 to 0.4)
